Measured values as given in patent US20060135483A1, “Oxygen/nitrogen heterocycle inhibitors of tyrosine phosphatases” (priority 2004, published 2006).
pIC50: −log10 of the molar value.

Columns and labels:
PTP-1B = target: T1, PTP-1B (Homo sapiens, UniProt P18031); assay: pNPP assay for tyrosine phosphatase inhibitory activity; assay type: biochemical; conditions: pNPP substrate 10 mM, 30° C., 10 minutes, absorbance at 405 nm
T1 construct: PTP-1B (purified, 1 mg/mL) as a 1:250 dilution
T1 sequence (P18031 1-321 limits assumed): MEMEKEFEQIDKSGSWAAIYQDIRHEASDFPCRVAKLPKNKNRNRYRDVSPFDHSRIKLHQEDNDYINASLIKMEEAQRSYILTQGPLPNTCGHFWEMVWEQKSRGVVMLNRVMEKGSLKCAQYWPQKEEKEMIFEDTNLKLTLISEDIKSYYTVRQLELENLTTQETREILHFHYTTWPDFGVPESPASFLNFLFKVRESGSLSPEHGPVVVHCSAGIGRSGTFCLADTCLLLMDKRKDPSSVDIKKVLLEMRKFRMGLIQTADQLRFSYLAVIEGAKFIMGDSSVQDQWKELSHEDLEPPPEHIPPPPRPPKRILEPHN
Protocol: The compounds provided herein are evaluated for biological activity as inhibitors of PTP-1B using, for example, a pNPP assay. Such an assay can be used to screen compounds for tyrosine phosphatase inhibitory activity as shown in Example 39.
A 5× stock of pNPP (p-nitrophenol phosphate) substrate is prepared as 50 mM pNPP in assay buffer. Various tyrosine phosphatase solutions can be prepared as follows: • PTP-1B (purified, 1 mg/mL) as a 1:250 dilution (to a final concentration of 4:g/mL); • TC-PTP (NEB, 1000 units in 100:L) as a 1:50 dilution (to a final concentration of 2 U/10:L (4:g/mL)); • CD45 (Calbiochem, 20:g, 400 units in 100: L) as a 1 :50 dilution (to a final concentration of 0.8 U/10:L (4:g/mL)); • LAR (NEB, 1000 units in 200:L) as a 1:75 dilution (to a final concentration of 0.7 U/10:L (4:g/mL)); and • PTP-β (UBI, #14-350, 10,000 units, 40:g/571:L) as a 1:17.5 dilution (to a final concentration of 10 U/10:L (4:g/mL));
The compound to be tested is prepared as 1:16.7 and 1:50 dilutions from stock in a total volume of 1 00:M DMSO to give final concentrations of 626 and 200:M. The reaction mixtures are prepared in a 96-well microtiter plate (on ice) as 55:L assay buffer, 5:L of the diluted compound (to a final concentration of 31.3 and 10:M), 20:L of the pNPP substrate solution (to a final concentration of 10 mM) and 20:L PTPase in assay buffer. The reactants are mixed well, the plate placed in a water bath at 30° C. and incubated for 10 minutes. The reaction is then terminated by adding 1 OO:L of 2M K2CO3 per well, and the absorbance is measured at 405 nm by conventional means.
Unless otherwise indicated, this assay was used to determine activity for the selected compounds whose activity is recorded in Table 1 and Table 2.

| Compound | melting point | pIC50 (PTP-1B; Table 2) | pIC50 (PTP-1B; Table 1) |
| --- | --- | --- | --- |
| CS(=O)(=O)c1ccc(-c2cnc(N(Cc3ccc(C(F)(F)P(=O)(O)O)c(Cl)c3)c3ccc(Cl)c(Cl)c3)o2)cc1 [Example 31, {[2-Chloro-4-({(3,4-dichloro-phenyl)-[5-(4-methanesulfonyl-phenyl)-oxazol-2-yl]-amino}-methyl)-phenyl]-difluoro-methyl}-phosphonic acid] | 141 to 143 °C | 6.30 to 7.00 |  |
| CS(=O)(=O)c1ccc(-c2cnc(N(Cc3ccc(C(F)(F)P(=O)(O)O)c(Br)c3)c3ccc(Cl)c(Cl)c3)o2)cc1 [Example 6, {[2-Bromo-4-({(3,4-dichloro-phenyl)-[5-(4-methanesulfonyl-phenyl)-oxazol-2-yl]-amino}-methyl)-phenyl]-difluoro-methyl}-phosphonic acid] |  |  | > 7.00 |
| CS(=O)(=O)c1ccc(-c2cnc(N(Cc3ccc(C(F)(F)P(=O)(O)O)c(Cl)c3)c3ccccc3)o2)cc1 [{[2-Chloro-4-({(5-(4-methanesulfonyl-phenyl)-oxazol-2-yl]-phenyl-amino}-methyl)-phenyl]-difluoro-methyl}-phosphonic acid] |  | 6.30 to 7.00 |  |
| COC(=O)c1ccccc1-c1ccc(-c2cnc(N(Cc3ccc(C(F)(F)P(=O)(O)O)c(Br)c3)c3ccc(Cl)c(Cl)c3)o2)cc1 [Example 15, 4′-{2-[[3-Bromo-4-(difluoro-phosphono-methyl)-benzyl]-(3,4-dichloro-phenyl)-amino]-oxazol-5-yl}-biphenyl-2-carboxylic acid methyl ester] |  |  | 5.00 to 6.00 |
| CS(=O)(=O)c1ccc(-c2cnc(N(Cc3ccc(OCC(=O)O)c(Br)c3)c3ccc(Cl)c(Cl)c3)o2)cc1 [[2-Bromo-4-({(3,4-dichloro-phenyl)-[5-(4-methanesulfonyl-phenyl)-oxazol-2-yl]-amino}-methyl)-phenoxy]-acetic acid] |  |  | 4.00 to 5.00 |
| COP(=O)(O)C(F)(F)c1ccc(CN(c2ccc(Cl)c(Cl)c2)c2ncc(-c3ccc(S(C)(=O)=O)cc3)o2)cc1Br [{[2-Bromo-4-({(3,4-dichloro-phenyl)-[5-(4-methanesulfonyl-phenyl)-oxazol-2-yl]-amino}-methyl)-phenyl]-difluoro-methyl]-phosphonic acid monomethyl ester] |  |  | 4.00 to 5.00 |
| O=C(O)c1cccc(Oc2cccc(-c3nnc(N(Cc4ccc(C(F)(F)P(=O)(O)O)cc4)c4ccc(Cl)c(Cl)c4)o3)c2)c1 [Example 23, 3-[3-(5-{(3,4-Dichloro-phenyl)-[4-(difluoro-phosphono-methyl)-benzyl]-amino}-[1,3,4]oxadiazol-2-yl)-phenoxy]-benzoic acid] |  |  | 5.00 to 6.00 |
| COC(=O)c1ccccc1Oc1cccc(-c2cnc(N(Cc3ccc(C(F)(F)P(=O)(O)O)c(Br)c3)c3ccc(Cl)c(Cl)c3)o2)c1 [Example 14, 2-(3-{2-[[3-Bromo-4-(difluoro-phosphono-methyl)-benzyl]-(3,4-dichloro-phenyl)amino]-oxazol-5-yl}-phenoxy)-benzoic acid methyl ester] |  |  | 5.00 to 6.00 |
| COc1ccccc1N(Cc1ccc(C(F)(F)P(=O)(O)O)c(Cl)c1)c1ncc(-c2ccc(S(C)(=O)=O)cc2)o1 [[(2-Chloro-4-{[[5-(4-methanesulfonyl-phenyl)-oxazol-2-yl]-(2-methoxy-phenyl)-amino]-methyl}-phenyl)-difluoro-methyl]-phosphonic acid] |  | 6.00 to 6.30 |  |
